Results from patent publication US20250114313A1, “OLIGO-BENZAMIDE ANALOGS AND THEIR USE IN CANCER TREATMENT” (BOARD OF REGENTS, THE UNIVERSITY OF TEXAS SYSTEM, priority 2022, published 2025).
“Also recorded” adds a separate entry of the source.

Legend:
[1] = target: T1, lysosomal acid lipase (LAL) protein (Homo sapiens, UniProt P38571); experiment: Cellular thermal shift assay, LAL; assay type: binding; details: 10 μM, SUM-159 cells
T1 construct: heat stability of LAL or vinculin protein in SUM-159 cells; endogenous in cells; host or cells: SUM-159
Description: Cellular Thermal Shift Assay (CETSA): Cellular Thermal Shift Assays were performed as described previously^36. Briefly, cells were treated with DMSO or 10 μM ERX-41 for 30 min, then trypsinized, pelleted and resuspended in PBS supplemented with Halt protease inhibitor cocktail (Thermo Scientific), with DMSO or 10 μM ERX-41. Resuspended cells were aliquoted into PCR strips. The cells were incubated in thermal cycler (Bio-rad) at gradient temperatures for 3 minutes, followed by incubation at 25° C. for 3 minutes. Then cells were snap-frozen in liquid nitrogen. Freeze-thaw the cells twice using liquid nitrogen. Then transfer samples into Eppendorf tubes, followed by briefly vortex and centrifuge at 20,000 g for 20 minutes at 4° C. Mix cleared cell lysates with ⅓ volume of 4× Laemmli sample buffer. After boiling, cell lysates were resolved in SDS-PAGE followed by western blotting.

TNBC cells = experiment: Global de novo protein synthesis (puromycin labeled nascent proteins), TNBC cells; assay type: cell-based, Human; details: 1 μM
Description: Western blotting: Whole cell lysates from breast cancer cells were prepared with 2× sample buffer (60 mM Tris-HCl, pH 6.8, 2% sodium dodecyl sulfate, 10% glycerol), and before loading mixed with loading buffer (5% 2-mercaptoethanol, 0.1% bromophenol blue) and boiled for denaturation, as previously described.^33 Proteins were separated by SDS-PAGE and subjected to Western analysis using antibodies. To detect nascent translated proteins, puromycin (final concentration 10 μg/mL) was added into cell plates 30 minutes before harvesting cells. Then samples were subjected to the Western blotting. Nascent proteins were detected by anti-puromycin antibody.

TNBC cells (MDA-MB-231) = experiment: Live cell imaging with SYTOX Green, cell death in TNBC cells; assay type: cell-based, Human; details: within 30 hours of treatment; control <1%
Description: Live cell imaging: Live cell images were acquired by Lionheart FX automated microscope (BioTek). Cells were plated one day before the experiment. For cell death assay, 0.2 μM SYTOX Green was added into the plate 15 min before the experiment.

[2] = test system: ovarian cancer cell line xenograft (ES2); experiment: Ovarian cancer cell line xenograft ES2; assay type: in vivo, mice; details: 10 mg/kg/day i.p.
Description: Animal Studies: All animal experiments were performed using UTHSA and UTSW IACUC approved protocols. For cell based xenograft tumor assays, TNBC cells (2×10^5-2×10^6) were mixed with an equal volume of matrigel and implanted in the mammary fat pads of 6-week-old female athymic nude mice as described^33. BALB/c mice were used for D2A1 syngeneic model. Once tumors reached measurable size, mice were divided into control (vehicle) and ERX-41 (10 mg/kg/oral) treatment groups. Mice bearing TNBC PDX tumors were purchased from Jackson laboratory (TM00089; TM00096; TM00098). TNBC PDX line UTPDX0001 establishment was earlier described^38. WHIM-20 ER+PDX model was purchased from Horizon Labs. OCa-PDX-38 was received from UTHSA ObGyn tissue procurement core. When tumors reached ˜750 mm^3 they were dissected into 2 mm^3 pieces and implanted into the mammary fat pads of 6 weeks old female SCID or NSG mice. When the tumor volume reached ˜200 mm^3, mice were randomized for treatment. The mice were monitored daily for adverse toxic effects and tumor volume was measured every 3-4 days using calipers. For establishing ES2 tumors, ES2/GFP/LUC cells were injected i.p. and tumors were measured twice a week using Xenogen in vivo imaging system. […] The mice were monitored daily for adverse toxic effects. […] The sections were scored by two independent evaluators blinded to the patient's clinical status.

[3] = test system: SUM-159 LIPA KO xenografts; experiment: SUM-159 LIPA KO xenografts; assay type: in vivo, SCID mice; details: i.p., 10 mg/kg/day
Description: (§1) Knockout studies: For xenograft knockout tumor models, 1.8×10^6SUM159 parental, or 1.8×10^6SUM159-LIPA KO cells were harvested with 1% trypsin-EDTA, washed and resuspended in sterile PBS. Cells were initially implanted into the mammary fat pads of six-week-old female C.B-17 (SCID) mice purchased from Envigo (Indianapolis, IN, USA). Mice were monitored twice weekly for tumor growth measured by Vernier calipers where tumor volume was calculated by the formula (length×width^2)/2. Tumors were dissected into 2 mm cubes when they reached 800 mm^3 in size and subsequently implanted into the mammary fat pad of twelve SCID female mice. Once tumor fragments reached 150 mm^3 in size, mice were randomly divided into vehicle group (n=6, control, 0.3% Hydroxy cellulose, i.p.) and treatment group (n=6, ERX-41, 10 mg/kg/day/i.p.). Institutional guidelines were followed to determine experimental end points.

[4] = test system: MDA-MB-231 TNBC tumor xenografts; experiment: IHC of ER stress markers in TNBC xenografts after a single dose; assay type: in vivo, mice; details: single dose 10 mg/kg oral, within 24 h
Description: Immunohistochemistry: Immunohistochemical studies were performed as described previously.^7 For the immunohistochemical studies, tissue sections were blocked in background sniper (Biocare Medical, RS966L) followed by overnight incubation with primary antibodies anti-Ki-67 antibody (1:1000, GeneTex cat #GTX16667 RRID:AB_422351) (link), anti-CHOP antibody (1:2000, Sigma, Cat #HPA068416), anti-PERK (phospho T982) antibody (1:150, Abcam Cat #ab192591, RRID:AB_2728666) link)), anti-phospho-eIF2α (Ser51) (1:50, Cell signaling, cs3398) and subsequent secondary antibody incubation for 60 min at room temperature. Immunoreactivity was visualized by using the DAB substrate and counterstained with hematoxylin (Vector Lab, Inc.). Percent of Ki67 positive proliferating cells was calculated in five randomly selected high-power fields (×40).

[5] = test system: parental SUM-159 xenografts; experiment: Parental SUM-159 xenografts; assay type: in vivo, SCID mice
Description: as §1

T1 sequence (P38571 77-399): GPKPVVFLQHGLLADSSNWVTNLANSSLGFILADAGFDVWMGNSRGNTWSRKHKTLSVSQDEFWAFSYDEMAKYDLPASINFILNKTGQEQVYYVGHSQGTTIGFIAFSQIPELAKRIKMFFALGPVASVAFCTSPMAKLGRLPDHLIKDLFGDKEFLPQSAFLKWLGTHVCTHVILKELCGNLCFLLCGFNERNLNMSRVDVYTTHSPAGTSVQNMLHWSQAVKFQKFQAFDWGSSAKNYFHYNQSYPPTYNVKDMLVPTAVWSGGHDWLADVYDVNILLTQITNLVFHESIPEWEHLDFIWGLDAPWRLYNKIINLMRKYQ

SMILES: CC(C)COc1cc(C(=O)Nc2ccc(C(=O)N[C@H]3CC[C@H](C)CC3)cc2OCC(C)C)ccc1NC(=O)c1ccc([N+](=O)[O-])c(OCCO)c1 [ERX-41]
- thermal stability of LAL [1]: stabilize the thermal stability of LAL
- global de novo protein synthesis (TNBC cells): blocked; also recorded: blocks de novo protein synthesis
- cells dead (TNBC cells (MDA-MB-231)): > 90%
- activity against ES2 xenograft [2]: has activity against
- response of LIPA KO xenografts [3]: did not respond
- ER stress markers in tumor xenograft tissues [4]: enhanced p-PERK, and p-eIF2α staining
- Ki67 staining, parental xenografts ([5]; at sacrifice): decrease in Ki67 staining
- response of parental xenografts ([5]; i.p., 10 mg/kg/day): responded significantly
